In patent US20260000632A1, “STRUCTURALLY MODIFIED FATTY ACIDS FOR IMPROVING GLYCEMIC CONTROL AND TREATING INFLAMMATORY BOWEL DISEASE” (Northsea Therapeutics B.V., priority 2018, published 2026):
Values joined by “and” are separate entries in the source; they are usually repeats but may differ in a detail not shown here. Identical values can stand only once.

What was measured:
[1] = Excretion balance of radioactivity after single oral [14C]-Compound B; format: in vivo, rat; conditions: male albino rats, single oral [14C]-Compound B 50 mg/kg
Description: To assess Compound B clearance via urine versus feces, the excretion pattern of a single oral dose of [14C]-Compound B was determined in male albino rats. […] The total excretion of radioactivity following oral administration was >95% within the first 48 hours. Excretion via the urine accounted for 12% of the administered dose. […]

[2] = test system: DSS-induced colitis C56BL/6J mice; assay: DSS-induced colitis mouse model (body weight, colon length, survival, histology); format: in vivo; conditions: for Difference in weight loss between control and treated group / Survival rate 7 days after colitis was induced: 1.5% DSS; for Survival rate 7 days after colitis was induced: C56BL/6J mice (control 50%)
Text: The dextran sodium sulphate-induced (DSS)-induced colitis model is well known in the art as a reproducible chemical induction of intestinal inflammation animal model. See, e.g., Eichele et al., World J Gastroenterol, 2017, 23(33):6016-6029; Randhawa et al., Korean J. Physiol. Pharmacol. (2014) 18:279-288; Jurjus et al., J. Pharmacol. Toxicol., Methods, 2004, 50:81-92; Gaudio et al., Dig. Dis. Sci., 1999, 44:1458-1475. The DSS-induced colitis model morphologically and symptomatically resembles epithelial damage seen in human IBD, and thus has become the most extensively employed experimental model of intestinal inflammation. Okayasu et al., Gastroenterology, 1990, 98:694-702; Kawada et al., World J. Gastroenterol. 2007, 13:5581-5593. The DSS-induced colitis model is most similar to ulcerative colitis in humans, but also has many similarities to Crohn's disease.
DSS is a water soluble, negatively charged sulfated polysaccharide with a highly variable molecular weight ranging from 5 to 1400 kDa. Murine colitis results from administration of about 1% to 3% DSS to the drinking water of a mouse strain susceptible to DSS-induced colitis. Without being bound by theory, the sulfated polysaccharide may not directly induce intestinal inflammation, but may instead act as a direct chemical toxin to colonic epithelium resulting in epithelial cell injury. It is thought that DSS disrupts the intestinal epithelial monolayer lining, leading to the entry of luminal bacteria and associated antigens into the mucosa and allowing the dissemination of proinflammatory intestinal contents into underlying tissue. […] Perse et al., J. Biomed. Biotechnol., 2012:718617.
The C56BL/6J mouse is a strain susceptible to DSS-induced colitis. To evaluate the efficacy and dosage of Compound B in treatment of DSS-induced colitis, inflammation was induced in 30 9-week old C56BL/6J mice by adding 1.5% DSS to the drinking water for 7 days. The mice were fed a standard chow diet that consisted of 30 weight percent wheat. The mice were divided into three groups of 10, and for each day of DSS administration each group was administered via oral gavage either (1) 100 μL corn oil per day (Control), (2) 126 mg/kg Compound B (dissolved in 100 μL corn oil) per day (“Compound B-Low” or “Compound B-L”), or (3) 252 mg/kg Compound B (dissolved in 100 μL corn oil) per day (“Compound B-High” or “Compound B-H”). Following the 7-day period of DSS induction, mice were sacrificed and their intestinal tissue was used for histopathological and gene expression analysis.
To assess the efficacy of Compound B in the treatment of DSS-induced colitis in mice, the body weight of mice was monitored. Weight loss is an indicator of colitis severity.
To assess the efficacy of Compound B in the treatment of DSS-induced colitis in mice, colon length of test mice was measured. Colon length correlates inversely with inflammation.
Histopathological analysis was performed on sections of formalin-fixed paraffin embedded tissue after hematoxylin and eosin (H&E) staining. Colonic samples were analyzed by histopathology for assignment of scores for colitis activity as described in Neurath et al., J. Exp. Med., 2002, 195:1129-1143. Briefly, the degrees of inflammation and epithelial and mucosal injury on microscopic cross-sections of the colon were graded semi-quantitatively from 0 to 4. For inflammation, a score of 0=no evidence for inflammation; 1=low level of inflammation with scattered infiltrating mononuclear cells (1-2 foci only); 2=moderate inflammation with multiple foci; 3=high level of inflammation with increased vascular density and marked wall thickening; and 4=maximal severity of inflammation with transmural leukocyte infiltration and loss of goblet cells. For injury, a score of 0=no epithelial injury; 1=occasional epithelial lesion; 2=1-2 foci of ulcerations; and 3=extensive ulcerations. […]

[3] = high dose, 252 mg/kg per day, 7 days 1.5% DSS

Compound: CC/C=C\C/C=C\C/C=C\C/C=C\C/C=C\CCCCSC(CC)(CC)C(=O)O [Compound B, 2-ethyl-2-((5Z,8Z,11 Z,14Z,17Z)-icosa-5,8,11,14,17-pentaenylthio)butanoic acid]
- Total excretion of radioactivity within the first 48 hours [1]: > 95%
- % Recovery of Administered Dose (Mean), Cage debris (0-168 h) ([1]; n = 3): 0.038%
- % Recovery of Administered Dose (Mean), Carcass (168 h) ([1]; n = 3): 1.14%
- % Recovery of Administered Dose (Mean), Faeces (0-168 h) ([1]; n = 3): 86% and 85.8%
- % Recovery of Administered Dose (Mean), Mean total radioactivity (0-168 h) ([1]; n = 3): 101%
- % Recovery of Administered Dose (Mean), Urine (0-168 h) ([1]; n = 3): 12% and 12.4%
- % Recovery of Administered Dose (Mean), Cage wash (0-168 h) ([1]; n = 3, includes final cage wash): 1.27%
- Difference in weight loss between control and treated group ([2]; 126 mg/kg per day (Compound B-Low) oral gavage, C56BL/6J mice): statistically significant after 7 days
- Difference in weight loss between control and treated group ([2]; 252 mg/kg per day (Compound B-High) oral gavage, C56BL/6J mice): statistically significant after 6 days
- Body weight loss compared to control ([2]; 126 and 252 mg/kg per day oral gavage, 7 days 1.5% DSS, C56BL/6J mice): dose-dependent reduction in weight loss
- Histology of colon cross-sections in treated mice ([2]; 126 and 252 mg/kg per day, 7 days 1.5% DSS): dose-dependent attenuation of inflammatory infiltrates and edema
- Colon length compared to control ([2]; both low (126 mg/kg) and high (252 mg/kg) doses per day, 7 days 1.5% DSS, C56BL/6J mice): significant increase in colon length
- Survival rate 7 days after colitis was induced ([2]; high dose, 252 mg/kg per day oral gavage): 100%
- Histological cross-sections of colon, morphology [2, 3]: almost complete rescue
- Inflammation and epithelial and mucosal injury versus untreated mice [2, 3]: lower
- Histological scores of colon versus untreated mice ([2]; high dose, 252 mg/kg per day, 7 days 1.5% DSS, H&E): significantly lower
- Survival rate 7 days after colitis was induced ([2]; low dose, 126 mg/kg per day oral gavage): 90%
